Results on 16 molecules are retold here after patent publication EP0393530B1, “5,11-dihydro-6H-pyrido[2,3,-b][1,4]benzodiazepin-6-ones and -thiones and their use in the prevention or treatment of AIDS” (BOEHRINGER INGELHEIM PHARMACEUTICALS INC., priority 1989, dated 1990).

In series [1] the target is T1, HIV-1 reverse transcriptase (Human immunodeficiency virus type 1 group M subtype B, UniProt P03367).
T1 construct: Reverse transcriptase enzyme from the LAV strain of Human Immunodeficiency Virus (HIV-1); made in house; host or cells: E. coli JM109, clone pBRTprt1+ in vector pIBI21 (lac promoter, IPTG induction)
Description: Reverse Transcriptase (RT) Assay. In kind it is biochemical. As to conditions: RNA-dependent DNA polymerase activity. The source says: Utilizing the Reverse Transcriptase (RT) Assay described below, compounds can be tested for their ability to inhibit the RNA-dependent DNA polymerase activity of HIV RT. Certain specific compounds, described in the Examples which appear below, were so tested.
Among the enzymes for which Human Immunodeficiency Virus (HIV-1) encodes is a reverse transcriptase (1), so-named because it transcribes a DNA copy from an RNA template. This activity can be quantitatively measured in a cell-free enzyme assay which has been previously described (2), and is based upon the observation that reverse transcriptase is able to use a synthetic template [poly r(C) primed with oligo d(G)] to transcribe a radio-labelled, acid-precipitable DNA strand utilizing ³H-dGTP as a substrate.
a) Preparation of the enzyme Reverse transcriptase enzyme from the LAV strain of Human Immunodeficiency Virus (HIV-1) (1) was isolated from the bacterial strain JM109 (3) expressing the DNA clone pBRTprt1+ (2) which is under the control of the lac promotor in the expression vector pIBI21 (4). An overnight culture grown in 2XYT medium (37°C, 225 rpm) (5) supplemented with 100 µg/ml ampicillin for positive selection is inoculated at a 1:40 dilution into M9 medium supplemented with 10µg/ml thiamine, 0.5% casamino acids, and 50 µg/ml ampicillin (5). The culture is incubated (37°C, 225 rpm) until it reaches an OD540 of 0.3-0.4. At that time the repressor inhibitor IPTG (isopropyl b-D-thiogalactopyranoside) is added to 0.5mM and incubated for 2 additional hours. Bacteria are pelleted, resuspended in a 50mM Tris, 0.6mM EDTA, 0.375M NaCl buffer and digested by the addition of lysozyme (1mg/ml) for 30 minutes on ice. The cells are lysed by the addition to 0.2% NP-40 and brought to 1M NaCl. After removal of the insoluble debris by centrifugation, the protein is precipitated by the addition of 3 volumes of saturated aqueous ammonium sulfate. The enzyme is pelleted, resuspended in RT buffer (50mM Tris pH 7.5, 1mM EDTA, 5mM DTT, 0.1% NP-40, 0.1M NaCl, and 50% glycerol) and stored at -70°C for further use. b) Composition of 2X concentrated stock reaction mixture
The 2X concentrated stock reaction mixture is aliquoted and stored at -20°C. The mixture is stable and thawed for use in each assay. This enzyme assay has been adapted to a 96 well microtiter plate system, and has been previously described (6). Tris buffer (50 mM, pH 7.4), vehicle (solvent diluted to match the compound dilution), or compounds in vehicle are dispensed into 96-well miciotiter plates (10µl/well; 3 wells/compound). The HIV RT enzyme is thawed, diluted in 50mM Tris pH 7.4 so that fifteen µl of diluted enzyme contain 0.001 Unit (one unit is that amount of enzyme to transform 1 micromole of substrate per minute at 25°C), and 15µl are dispensed per well. Twenty µl of 0.12-0.5M EDTA are added to the first three wells of the microtiter plate. EDTA chelates the Mg⁺⁺ present and prevents reverse transcription. This group serves as background polymerization which is subtracted from all other groups. Twenty-five µl of the 2X reaction mixture are added to all wells and the assay is allowed to incubate at room temperature for 60 minutes. The assay is terminated by precipitating the DNA in each well with 50µl of trichloracetic acid (TCA) (10% w/v) in sodium pyrophosphate (1% w/v). The microtiter plate is incubated for 15 minutes at 4°C and the precipitate is fixed onto #30 glass fiber paper (Schleicher & Schuell) using a Skatron semi-automatic harvester. The filters are then washed with additional TCA (5%) containing sodium pyrophosphate (1%), rinsed with aqueous ethanol (70%), dried, and transferred to scintillation vials (6). Each vial receives 2 mls of scintillation cocktail and is counted in a Beckman beta counter.
The calculation for percent inhibition is as follows: [formula]

Series [2] can be described thus: MTT Assay for Cellular Cytotoxicity. Conditions: human, H9 cells, five days, EC₅₀ called the highest non-toxic concentration, read-out: Cytotoxity Assay (EC₅₀). The series is classed as cell-based. The procedure:
In order to roughly assess the cytotoxicity of the compounds provided by the invention, several such compounds were tested in the MTT Cellular Cytotoxicity Assay described below. Compounds having a relatively high EC₅₀ are preferred.
The MTT [3-(4,5-dimethylthiazol-2-yl)-2,5-diphenyl tetrazolium bromide) assay is based on cleavage of tetrazolium bromide by metabolically active cells, resulting in a highly quantitative blue color. This assay has been previously described (1) but his been optimized for the purposes of the testing reported herein.
The H9 cell line (2), an established human lymphoma suspension cell line grown in RPMI 1640 supplemented with 10% fetal bovine serum is used as the target cell line in the assay. Cells (100µl) are plated in microtest plate wells at a concentration of 10⁵ cells per ml in the presence of varying concentrations of inhibitor. The cells are incubated at 37°C in a humidified CO₂ incubator. Five days later, 20µl of MTT (5mg/ml in RPMI 1640, sonicated, 0.2 micron filtered, and stored at 4°C) is added to each well. After 4 hours additional incubation at 37°C, 60µl of Triton-X is added to each well and thoroughly mixed to aid the solubilization of the crystals. Absolute ethanol (5µl) is added to each well and the resulting mixture is incubated for 30 minutes at 60°C and immediately read on a plate reader (Dynatech) at a wavelength of 570nm. […]

Series [3] concerns HTLV-IIIB strain of HIV-1. The experiment in a line: Human T-Cell Culture Assay (syncytia formation in c8166 cells). In kind it is cell-based. Conditions: Human immunodeficiency virus 1, IIIB, 96 h, syncytia four days after virus challenge. The procedure:
In order to confirm that compounds which are active in the RT Assay also have the ability to inhibit HIV replication in a living system, compounds according to the invention were also tested in the Human T-Cell Culture Assay described below.
Assay Theory: Formation of syncytia is a feature of in vitro cultures of CD4+ T-cells infected with HIV-1. In this assay, T-cells are treated with a putative replication inhibiting compound and then infected with HIV-1. After incubation the culture is checked for the formation of syncytia. The absence or reduction is the number of syncytia is used as a measure of the test compound's ability to inhibit HIV replication.
Assay Method: The target cells, designated c8166, are a subclone of human lymphoma cells of T-cell origin and are established at an initial density of 5x10⁴ per 100 µl in RPMI 1640 (+ 10% fetal bovine serum) culture medium in 96 well flat bottom plates. A selected amount of test compound, dissolved in DMSO is included. After 24 hours, 50-100 TCID50's (the dose that results in induced effect in 50% of test cultures) of the HTLV-IIIB strain of HIV-1 (2) are innoculated into each culture. Control cultures receive compound or virus only. […] The percent inhibition by the test compound is determined by comparison with control values. […]

The term inhibition denotes how much of the control response was suppressed. In series [1], `C=C(Cl)CN1C(=O)c2ccccc2N(CC)c2ncccc21` [Example 1, 5-(2-Chloro-2-propenyl)-11-ethyl-5,11-dihydro-6H-pyrido [2,3-b][1,4]benzodiazepin-6-one] registered an inhibition at 10 µg/mL of 41%. Same read-out and setting: with `Cc1ccc2c(c1)C(=O)N(C)c1ccc(C)nc1N2C` [Example 2, 2,5,8,11-Tetramethyl-5,11-dihydro-6H-pyrido[2,3-b][1,4]benzodiazepin-6-one] the figure was 50%.

In series [1], `CCN1C(=O)c2cccc(C)c2N(CC)c2ncccc21` [Example 3, 5,11-Diethyl-10-methyl-5,11-dihydro-6H-pyrido[2,3-b][1,4]benzodiazepin-6-one] showed an inhibition at 10 µg/mL of 87%. As to `CCN1c2ccc(C)cc2C(=O)N(C)c2cccnc21` [Example 4, 5,8-Dimethy-11-ethyl-5,11-dihydro-6H-pyrido[2,3-b][1,4]benzodiazepin-6-one], the CC50 at 120 h in series [2] was 40 µM. In series [3] (@19µM), 19 µM produced 100% inhibition. In addition, the inhibition at 10 µg/mL in series [1] was 91%. In turn, `Cc1ccc2c(n1)N(C)c1c(C)cccc1C(=O)N2C` [Example 5, 2,5,10,11-Tetramethyl-5,11-dihydro-6H-pyrido[2,3-b][1,4]benzodiazepin-6-one] came in with an inhibition at 10 µg/mL in series [1] of 84%. The same measure, in the same setting: with `CC(C)(C)OC(=O)CN1c2ccccc2C(=O)Nc2cccnc21` [Example 6] the figure was 86%.

As for `CCN1C(=O)c2ccccc2N(C)c2nc(Cl)ccc21` [Example 7, 2-Chloro-5-ethyl-11-methyl-5,11-dihydro-6H-pyrido[2,3-b] [1,4]benzodiazepin-6-one], in series [1], 10 µg/mL produced 43% inhibition. Still for that read-out and setting: with `Cc1ccc2c(c1)C(=O)N(C)c1cccnc1N2C` [Example 8, 5,8,11-Trimethyl-5,11-dihydro-6H-pyrido[2,3-b][1,4]benzodiazepin-6-one] the figure was 40%; with `CN1c2ccccc2C(=O)Nc2cccnc21` [Example 9a, 11-Methyl-5,11-dihydro-6H-pyrido[2,3-b][1,4]benzodiazepin-6-one], 17%; with `CCN1c2ccccc2C(=O)Nc2cccnc21` [Example 9b, 11-Ethyl-5,11-dihydro-6H-pyrido[2,3-b][1,4]benzodiazepin-6-one], 82%.

The molecule `O=C1Nc2cccnc2Nc2ccccc21` [Example 9c, 5,11-dihydro-6H-pyrido[2,3-b][1,4]benzodiazepin-6-one] had an inhibition at 10 µg/mL in series [1] of 55%. Same read-out and setting: for `CCN1C(=O)c2ccccc2N(C)c2ncccc21` [Example 9d, 5-Ethyl-11-methyl-5,11-dihydro-6H-pyrido[2,3-b][1,4]benzodiazepin-6-one] the value was 24%; for `CCCN1C(=O)c2ccccc2N(C)c2ncccc21` [Example 9e, 5-n-Propyl-11-methyl-5,11-dihydro-6H-pyrido[2,3-b][1,4]benzodiazepin-6-one], 38%; for `CCN1c2ccccc2C(=O)N(C)c2cccnc21` [Example 9f, 5-Methyl-11-ethyl-5,11-dihydro-6H-pyrido[2,3-b][1,4]benzodiazepin-6-one], 94%. As for `CCN1C(=O)c2ccccc2N(CC)c2ncccc21` [Example 9g, 5,11-Diethyl-5,11-dihydro-6H-pyrido[2,3-b][1,4]benzodiazepin-6-one], the CC50 at 120 h in series [2] was found to be 100 µM. The molecule further displayed an inhibition at 75 µM in series [3] (@75µM) of 100%. In addition, the inhibition at 10 µg/mL in series [1] worked out at 87%.

Regarding `C=CCN1C(=O)c2ccccc2N(CC)c2ncccc21` [Example 9h, 5-(2-Propenyl)-11-ethyl-5,11-dihydro-6H-pyrido[2,3-b][1,4]benzodiazepin-6-one], at 10 µg/mL the inhibition in series [1] was 70%.
